The structures appear in SMILES notation.

The assay deals with T1, BRD4 (BD1) (Homo sapiens, UniProt O60885).
T1 construct: longer constructs also being possible, preferably amino acids 44-168; made in house; host or cells: E. coli
The assay can be described thus: Binding assay BRD4/acetylated peptide H4 (TR-FRET protein-protein interaction assay). The following applies: BRD4 (BD1) / acetylated histone H4 peptide. The text has this:
To assess the BRD4 binding strength of the substances described in this application, the ability thereof to inhibit the interaction between BRD4 (BD1) and acetylated histone H4 in a dose-dependent manner was quantified.
For this purpose, a time-resolved fluorescence resonance energy transfer (TR-FRET) assay was used, which measures the binding between N-terminally His6-tagged BRD4 (BD1) (amino acids 67-152, longer constructs also being possible, preferably amino acids 44-168) and a synthetic acetylated histone H4 (Ac—H4) peptide with sequence GRGK(Ac)GGK(Ac)GLGK(Ac)GGAK(Ac)RHGSGSK-biotin. The recombinant BRD4 protein produced in-house according to Filippakopoulos et al., Nature, 2010, 468:1119-1123 was expressed in E. coli and purified by means of (Ni-NTA) affinity and (Sephadex G-75) size exclusion chromatography. The Ac—H4 peptide can be purchased, for example, from Biosyntan (Berlin, Germany).
In the assay, typically 11 different concentrations of each substance (0.1 nM, 0.33 nM, 1.1 nM, 3.8 nM, 13 nM, 44 nM, 0.15 μM, 0.51 μM, 1.7 μM, 5.9 μM and 20 μM) were analysed as duplicates on the same microtitre plate. For this purpose, 100-fold concentrated solutions in DMSO were prepared by serial dilutions (1:3.4) of a 2 mM stock solution into a clear, 384-well microtitre plate (Greiner Bio-One, Frickenhausen, Germany). From this, 50 nl were transferred into a black test plate (Greiner Bio-One, Frickenhausen, Germany). The test was started by the addition of 2 μl of a 2.5-fold concentrated BRD4 solution (final concentration typically 10 nM in the 5 μl of reaction volume) in aqueous assay buffer [50 mM HEPES pH 7.5, 50 mM sodium chloride (NaCl), 0.25 mM CHAPS and 0.05% serum albumin (BSA)] to the substances in the test plate. This was followed by a 10-minute incubation step at 22° C. for the pre-equilibration of putative complexes between BRD4 and the substances.
The mixture was then incubated in the dark at 22° C. for one hour and then at 4° C. for at least 3 hours and for no longer than overnight. The formation of BRD4/Ac—H4 complexes was determined by the measurement of the resonance energy transfer from the streptavidin-Eu cryptate to the anti-6His-XL665 antibody present in the reaction. For this purpose, the fluorescence emission was measured at 620 nm and 665 nm after excitation at 330-350 nm in a TR-FRET measuring instrument, for example a Rubystar or Pherastar (both from BMG Lab Technologies, Offenburg, Germany) or a Viewlux (Perkin-Elmer). The ratio of the emissions at 665 nm and at […] was taken as an indicator of the amount of BRD4/Ac—H4 complexes formed.
The data (ratios) obtained were normalized, with 0% inhibition corresponding to the mean from the measurements for a set of controls (typically 32 data points) in which all the reagents were present. In these, in place of test substances, 50 nl of DMSO (100%) were used. Inhibition of 100% corresponded to the mean from the measurements for a set of controls (typically 32 data points) in which all the reagents except BRD4 were present. The IC50 was determined by regression analysis based on a 4-parameter equation (minimum, maximum, IC50, Hill; Y=max+(min−max)/(1+(X/IC50)^Hill)).
A general note: TR-FRET usually uses a lanthanide donor and a delayed reading to cut background.
Turning to `CNC(=O)N1N=C(c2ccc(N3CC4(CCS4(=O)=O)C3)cc2)c2cc(-n3nc(C)cc3C)ccc2CC1C` (racemic) [Example 17, (±)-8-(3,5-dimethyl-1H-pyrazol-1-yl)-1-[4-(1,1-dioxido-1-thia-6-azaspiro[3.3]hept-6-yl)phenyl]-N,4-dimethyl-4,5-dihydro-3H-2,3-benzodiazepine-3-carboxamide], the IC50 (as a rule, the concentration that gives 50% inhibition) worked out at 40 nM.

`CNC(=O)N1N=C(c2ccc(N3CCC4(CC3)CNC(=O)C4)cc2)c2cc(OC)c(OC)cc2CC1C` (racemic) [Example 28, (±)-7,8-Dimethoxy-N,4-dimethyl-1-[4-(3-oxo-2,8-diazaspiro[4.5]dec-8-yl)phenyl]-4,5-dihydro-3H-2,3-benzodiazepine-3-carboxamide] registered an IC50 of 100 nM.

The molecule `CNC(=O)N1N=C(c2ccc(N3CCC4(CCN(C)C4)CC3)cc2)c2cc(OC)c(OC)cc2CC1C` (racemic) [Example 31, (±)-7,8-dimethoxy-N,4-dimethyl-1-[4-(2-methyl-2,8-diazaspiro[4.5]dec-8-yl)phenyl]-4,5-dihydro-3H-2,3-benzodiazepine-3-carboxamide] yielded an IC50 of 100 nM.

In turn, `CNC(=O)N1N=C(c2ccc(N3CCC4(CC3)COC(=O)N4)cc2)c2cc(OC)c(OC)cc2CC1C` (racemic) [Example 32] registered an IC50 of 110 nM.

As for `CNC(=O)N1N=C(c2ccc(N3CC4(C3)CS(=O)(=O)C4)cc2)c2cc(OC)c(OC)cc2CC1C` (racemic) [Example 34, (±)-1-[4-(2,2-dioxido-2-thia-6-azaspiro[3.3]hept-6-yl)phenyl]-7,8-dimethoxy-N,4-dimethyl-4,5-dihydro-3H-2,3-benzodiazepine-3-carboxamide], the concentration for half-maximal inhibition (IC50) came to 70 nM.

`CNC(=O)N1N=C(c2ccc(N3C4CCC3CC(=O)NC4)cc2)c2cc(OC)c(OC)cc2CC1C` (racemic) [Example 39, (±)-7,8-Dimethoxy-N,4-dimethyl-1-[4-(4-oxo-3,9-diazabicyclo[4.2.1]non-9-yl)phenyl]-4,5-dihydro-3H-2,3-benzodiazepine-3-carboxamide]: the half-inhibitory concentration (IC50) came to 120 nM.

With `CNC(=O)N1N=C(c2ccc(N3C(=O)[C@@H]4CC[C@H]3C4)cc2)c2cc(OC)c(OC)cc2C[C@@H]1C` (relative stereo) [Example 2, {1S-[1R*,2(S*),4S*]}-7,8-dimethoxy-N,4-dimethyl-1-[4-(-3-oxo-2-azabicyclo[2.2.1]hept-2-yl)phenyl]-4,5-dihydro-3H-2,3-benzodiazepine-3-carboxamide], the IC50 was determined as 20 nM.

The molecule `CNC(=O)N1N=C(c2ccc(N3C[C@@H]4C[C@H]3CN4C)cc2)c2cc(OC)c(OC)cc2C[C@@H]1C` (relative stereo) [Example 40.2, [1S-[1R*,2(R*),4R*]]-7,8-Dimethoxy-N,4-dimethyl-1-[4-(5-methyl-2,5-diazabicyclo[2.2.1]hept-2-yl)phenyl]-4,5-dihydro-3H-2,3-benzodiazepine-3-carboxamide] returned an IC50 of 520 nM.

`CNC(=O)N1N=C(c2ccc(F)c(N3C[C@@H]4C[C@H]3CN4C)c2)c2cc(OC)c(OC)cc2C[C@H]1C` (relative stereo) [Example 41.1, [1S-(1R*,2(S*),4R*)]-1-[4-fluoro-3-(5-methyl-2,5-diazabicyclo[2.2.1]hept-2-yl)phenyl]-7,8-dimethoxy-4,5-dihydro-N,4-dimethyl-3H-2,3-benzodiazepine-3-carboxamide] gave an IC50 of 16500 nM.

`CNC(=O)N1N=C(c2ccc(F)c(N3C[C@@H]4C[C@H]3CN4C)c2)c2cc(OC)c(OC)cc2C[C@@H]1C` (relative stereo) [Example 41.2, [1S-(1R*,2(R*),4R*)]-1-[4-fluoro-3-(5-methyl-2,5-diazabicyclo[2.2.1]hept 2-yl)phenyl]-7,8-dimethoxy-4,5-dihydro-N,4-dimethyl-3H-2,3-benzodiazepine-3-carboxamide] displayed a concentration for half-maximal inhibition (IC50) of 380 nM.

As for `CNC(=O)N1N=C(c2ccc(N3CC4(CCS4(=O)=O)C3)cc2)c2cc(OC)c(OC)cc2C[C@H]1C` [Example 3.2, (4R)-1-[4-(1,1-Dioxido-1-thia-6-azaspiro[3.3]hept-6-yl)phenyl]-7,8-dimethoxy-N,4-dimethyl-4,5-dihydro-3H-2,3-benzodiazepine-3-carboxamide], the IC50 worked out at 2580 nM.

`CNC(=O)N1N=C(c2ccc(N3CC4(COC4)C3)cc2)c2cc(OC)c(OC)cc2C[C@H]1C` [Example 5.2, (4R)-7,8-dimethoxy-N,4-dimethyl-1-[4-(2-oxa-6-azaspiro[3.3]hept-6-yl)phenyl]-4,5-dihydro-3H-2,3-benzodiazepine-3-carboxamide] returned a half-inhibitory concentration (IC50) of 1360 nM.

`CNC(=O)N1N=C(c2ccc(N3CC4(CN(C(=O)OC(C)(C)C)C4)C3)cc2)c2cc(OC)c(OC)cc2C[C@H]1C` [Example 8.2, tert-butyl 6-{4-[(4R)-7,8-dimethoxy-4-methyl-3-(melhylcarbamoyl)-4,5-dihydro-3H-2,3-benzodiazepine-1-yl]phenyl}-2,6-diazaspiro[3.3]heptane-2-carboxylate] displayed an IC50 of 2050 nM.

Turning to `CNC(=O)N1N=C(c2ccc(N3CCC4(CCCC4)CC3)cc2)c2cc(OC)c(OC)cc2C[C@@H]1C` [Example 9.1, (4S)-1-[4-(8-azaspiro[4.5]dec-8-yl)phenyl]-7,8-dimethoxy-N,4-dimethyl-4,5-dihydro-3H-2,3-benzodiazepine-3-carboxamide], the IC50 is 200 nM.

In the case of `CNC(=O)N1N=C(c2ccc(N3CCC4(CCCC4)CC3)cc2)c2cc(OC)c(OC)cc2C[C@H]1C` [Example 9.2, (4R)-1-[4-(8-azaspiro[4.5]dec-8-yl)phenyl]-7,8-dimethoxy-N,4-dimethyl-4,5-dihydro-3H-2,3-benzodiazepine-3-carboxamide], the IC50 was > 20000 nM.

As to `CNC(=O)N1N=C(c2ccc(N3CC4(CCS4(=O)=O)C3)cc2)c2cc(OC(F)(F)F)ccc2C[C@H]1C` [Example 18.1, (4R)-1-[4-(1,1-dioxido-1-thia-6-azaspiro[3.3]hept-6-yl)phenyl]-N,4-dimethyl-8-(trifluoromethoxy)-4,5-dihydro-3H-2,3-benzodiazepine-3-carboxamide], the IC50 was found to be 11500 nM.

Consider `CNC(=O)N1N=C(c2ccc(N3C[C@@H]4C[C@H]3CO4)cc2)c2cc(OC)c(OC)cc2C[C@@H]1C` [Example 35, (4S)-7,8-dimethoxy-N,4-dimethyl-1-{4-[(1S,4S)-2-oxa-5-azabicyclo[2.2.1]hept-5-yl]phenyl}-4,5-dihydro-3H-2,3-benzodiazepine-3-carboxamide], for which the IC50 came out at 4110 nM.

Source of the values: patent US20160129011A1, “BICYCLO 2,3-BENZODIAZEPINES AND SPIROCYCLICALLY SUBSTITUTED 2,3-BENZODIAZEPINES” (BAYER PHARMA AKTIENGESELLSCHAFT, priority 2013, published 2016).
